Data set [1] in a line: physchem.
In data set [2] the target is TRH receptors in rat cortical membranes. Briefly: radioligand binding to ^3H-3MeHis-TRH-labelled receptors in rat cortex. The following applies: competition with 6-8 nM ^3H-3MeHis-TRH, Cheng-Prusoff. The procedure:
Evaluation of the ability of TRH, Glp-Asn-ProNH2, and Glp-Asn-ProAMC to bind to ^3H-3MeHis-TRH-labelled receptors in rat cortex: Radioligand binding assays were conducted to investigate the possibility that the two TRH-DE inhibitors might exert their effects by acting independently at TRH receptors in the brain.
Cortex tissue from male Sprague-Dawley rats (250 g) was dissected out, weighed and homogenised in 30 volumes of ice-cold sodium phosphate buffer (0.02 M, pH 7.5). The homogenates were centrifuged at 30,000 g at 4° C. for 30 min. The supernatant was discarded and the pellet was resuspended at 100 mg wet wt/ml in buffer containing 177 μM bacitracin. […] Non-specific binding was defined in the presence of 10 μM TRH.
The statistical significance of differences between behavioural effects of treatments was determined using the Student's t-test or ANOVA, followed by a post-ANOVA test, as indicated. Radioligand binding data were analysed using non-linear curve fitting software (Prism, Graph Pad Software Inc.). IC50 values calculated from competition experiments were converted to Ki values using the Cheng-Prusoff (41) equation Ki=IC50/(1+L/Kd), where L=ligand concentration and Kd=the apparent dissociation constant for [^3H]-[3-MeHis]TRH.

Data set [3] has as its system Male Wistar rats. The data set is described as follows: behavioural effects (WDS, locomotion) after i.c.v. administration. In kind it is in vivo, rat. The following applies: 5 μg alone, 30 min. The method, then: Methods: Behavioural studies were conducted using experimentally naïve Male Wistar rats (200-250 g) maintained in a temperature controlled (21° C.), artificially-lighted (12 hr light cycle) room with free access to food and water. Behavioural effects of […] following intra-cerebroventricular (i.c.v.) administration: Animals were implanted with guide cannula aimed at the lateral cerebral ventricles (AP-0.92 mm, ML-1.5 mm, DV-2.6 mm relative to Bregma, atlas of Paxinos & Watson) under halothane anaesthesia. One week following surgery placement of the cannulae was assessed by the ability of a microinjection of angiotensin II (200 ng in 1 μl) to induce drinking behaviour. […] They were then administered either vehicle (1 μl 0.9% saline) or […] (5 μg in 1 μl) followed 1 minute later by vehicle (1 μl 0.9% saline) or TRH (5 μg in 1 μl). One minute after the last i.c.v. injection animals were placed back into the perspex cage and their behaviour monitored by a computer automated tracking system for 30 minutes (Ethovision Pro, Noldus) to provide measures of locomotor activity. Animals were videotaped for subsequent blind analysis of WDS behaviour by a trained observer. A threshold dose of 5 μg TRH was chosen for i.c.v. administration so that if […] enhanced responses to TRH, this would be clearly visible. The statistical significance of differences between behavioural effects of treatments was determined using the Student's t-test or ANOVA, followed by a post-ANOVA test, as indicated. Radioligand binding data were analysed using non-linear curve fitting software (Prism, Graph Pad Software Inc.). IC50 values calculated from competition experiments were converted to Ki values using the Cheng-Prusoff (41) equation Ki=IC50/(1+L/Kd), where L=ligand concentration and Kd=the apparent dissociation constant for [^3[…].

Data set [4] concerns the target T1, TRH-DE (Sus scrofa, UniProt A0A287AP33).
T1 construct: The inventor purified TRH-DE from porcine brain according to purification procedures previously published by Dr. K. Bauer; from tissue; host or cells: porcine brain (TRH-DE); bovine kidney (DPP-IV, gift from Dr. C. H. Williams)
Briefly: continuous coupled fluorometric TRH-DE assay (TRHAMC substrate, DPP-IV coupling enzyme). In kind it is biochemical, porcine. The procedure:
(§1) The inventor purified TRH-DE from porcine brain according to purification procedures previously published by Dr. K. Bauer, (Max-Planck-Institut, Hannover, Germany) (1). TRH-DE was purified almost 20,000 fold. […] Dipeptidyl peptidase IV (DPP-IV) (EC 3.4.14.5), purified from bovine kidney (7.7 mg ml^−1, specific activity of 17.5 U mg^−1 with Gly-ProAMC as substrate), was obtained as a gilt from Dr. C. H. Williams (Queen's University Belfast, U.K). (DPP-IV was used as the coupling enzyme used in the fluorometric assays).
(§2) One unit (U) of enzyme activity was defined as that amount catalysing the formation of one μmol of product in one minute under the standard conditions employed. All incubations in the assays described below were carried out in 20 mM potassium phosphate buffer, pH 7.5, at 37° C.
Kinetic analysis of peptides that are not hydrolysed by TRH-DE. A recently-developed continuous coupled fluorometric assay (23) was used to investigate the ability of those library peptides that were not hydrolysed by TRH-DE to inhibit TRHAMC degradation by TRH-DE. In this assay, TRHAMC is the substrate and dipeptidyl peptidase IV (DPP-IV) (EC 3.4.14.5) is the coupling enzyme. The reaction sequence is:
The reaction was monitored continuously by measuring the increase in AMC fluorescence. A linear progress curve with no discernible lag period was observed when the reaction was monitored over a period of 10 minutes. Nevertheless, data sampling was not commenced until 100 s from the start of the reaction to ensure measurements were taken after a steady state had been reached (see Ref. 23).
In a preliminary experiment, the peptides were screened for their ability to inhibit TRH-DE activity. The initial rate of TRHAMC hydrolysis by TRH-DE was measured by incubating 5 μM TRHAMC with 1.23 μg DPP-IV and 0.32 μg TRH-DE, both in the absence and presence of each library peptide (1 mM final concentration) under standard assay conditions (23). In each case the percentage inhibition (i%) was calculated using the equation i%=100(1-vi/vo), where vi and vo are the initial velocities in the presence and absence of peptide, respectively.
Since these peptides were poor inhibitors they were not examined further. The Ki values for the remainder of the peptides were determined by measuring their effects on TRHAMC degradation by TRH-DE using the continuous assay. Data were collected in duplicate at five different substrate concentrations and at least three different concentrations of each peptide.
Reversibility and time dependence of the inhibition produced by Glp-Gln-ProNH2, Glp-Asn-ProNH2 and Glp-Asn-ProAMC were examined by initially preincubating TRH-DE with each peptide at 37° C. for various periods up to 75 min. To investigate time dependence, the enzyme-peptide solution was subsequently added to the reaction mixture containing TRHAMC, DPP-IV, buffer and peptide, and TRH-DE activity was measured using the continuous assay. The final concentration of Glp-Gln-ProNH2, Glp-Asn-ProNH2 and Glp-Asn-ProAMC used was 400, 160 and 1 μM, respectively. […] TRH-DE activity was not affected by pre-incubation at 37° C.
Fluorescence measurements were made using a Perkin Elmer LS 50B Luminescence Spectrometer fitted with a thernostated cell holder. Wavelengths for excitation and emission were set at 370 nm and 440 nm, respectively, with slit widths of 10 nm and 5 nm, respectively.

In data set [5] the target is T1, TRH-DE. The data set is described as follows: HPLC assay of peptide hydrolysis by TRH-DE (Glp production). The data set is classed as biochemical, porcine. The following applies: for Rate of hydrolysis: peptide 1 mM, 37° C., Glp production by HPLC, mean±S.D. The procedure: as §1, §2
Kinetic analysis of the peptide library using HPLC—The ability of each peptide in the library to act as a TRH-DE substrate was assessed using HPLC. As an initial screen, 1 mM peptide was incubated with 0.8 μg TRH-DE in a total volume of 1 ml for 18 h at 37° C. Control samples were included in which peptide (1 mM) or Glp (0.2 mM-0.8 mM) were incubated under identical conditions in the absence of TRH-DE. TRH-DE activity was terminated by the addition of TFA (0.15% v/v) and samples were then analysed using HPLC as described previously (24). Products resulting from TRH-DE hydrolysis could be separated on a C-18 reverse-phase column (Hypersil, UK) using a linear gradient of 0-70% acetonitrile in 0.08% (v/v) TFA. The concentration of Glp formed by the action of TRH-DE on the peptide library was measured by UV absorbance at 206 nm with a quantitative detection limit of 0.1 mM for a 40 μl injection volume, employing a signal to noise ratio of 10. Following the incubation of each peptide with TRH-DE, evidence of Glp in the sample was taken to indicate that the peptide was a TRH-DE substrate.
The rates of hydrolysis for each of those peptides identified as substrates were then compared by measuring Gip production using microassays with shorter incubation times. In these assays peptide (1 mM) was incubated at 37° C. in a total volume of 100 μl. 0.8-3.2 μg TRH-DE and incubations times of 5 min to 18 h were used routinely. Measurements were made in triplicate. The rate of TRH-OH hydrolysis was also measured by this method.

For data set [6], the system named is TRH-DE. The following applies: published observation (21); cited from earlier work.
In data set [7] the target is T1, TRH-DE. The following applies: From Ref. 23 (inventor's publication); cited from earlier work.

Values after ≈ are worked out from the molar mass of the structure shown. Where a SMILES comes first, the peptide text is derived from it. [ ]: non-standard residue; d: D form. The star is where a group is joined. AMC = Cc1cc(=O)oc2cc(N*)ccc12; pGlu = O=C1CC[C@@H](C(=O)O)N1

T1 sequence (A0A287AP33 1-1066): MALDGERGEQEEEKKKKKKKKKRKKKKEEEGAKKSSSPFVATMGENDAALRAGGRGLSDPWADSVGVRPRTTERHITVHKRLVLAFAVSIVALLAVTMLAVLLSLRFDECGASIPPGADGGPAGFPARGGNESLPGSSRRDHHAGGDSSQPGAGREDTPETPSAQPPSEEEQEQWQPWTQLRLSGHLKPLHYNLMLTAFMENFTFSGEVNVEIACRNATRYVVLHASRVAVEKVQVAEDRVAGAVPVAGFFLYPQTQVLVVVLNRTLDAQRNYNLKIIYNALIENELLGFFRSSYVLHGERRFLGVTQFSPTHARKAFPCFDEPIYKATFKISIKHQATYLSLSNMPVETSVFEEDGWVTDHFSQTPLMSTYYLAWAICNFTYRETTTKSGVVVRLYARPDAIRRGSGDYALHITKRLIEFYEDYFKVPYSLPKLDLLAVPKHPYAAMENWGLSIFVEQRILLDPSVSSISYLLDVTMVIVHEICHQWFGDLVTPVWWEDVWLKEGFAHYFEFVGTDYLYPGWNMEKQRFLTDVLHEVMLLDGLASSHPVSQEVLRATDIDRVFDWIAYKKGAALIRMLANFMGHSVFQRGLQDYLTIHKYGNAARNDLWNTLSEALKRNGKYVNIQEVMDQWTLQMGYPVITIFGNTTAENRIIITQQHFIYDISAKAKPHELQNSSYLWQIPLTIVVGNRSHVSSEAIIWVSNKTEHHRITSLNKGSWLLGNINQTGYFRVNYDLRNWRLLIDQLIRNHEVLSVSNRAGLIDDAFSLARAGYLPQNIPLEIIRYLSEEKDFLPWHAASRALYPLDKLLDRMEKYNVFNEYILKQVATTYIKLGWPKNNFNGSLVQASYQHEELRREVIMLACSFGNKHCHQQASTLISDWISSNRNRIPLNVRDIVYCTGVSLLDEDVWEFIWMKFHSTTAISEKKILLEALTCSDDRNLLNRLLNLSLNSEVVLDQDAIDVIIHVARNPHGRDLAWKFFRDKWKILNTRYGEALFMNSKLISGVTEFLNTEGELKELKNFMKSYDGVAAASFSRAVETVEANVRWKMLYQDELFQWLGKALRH

In data set [1], `Cc1cc(=O)oc2cc(NC(=O)[C@@H]3CCCN3C(=O)[C@H](CC(N)=O)NC(=O)[C@@H]3CCC(=O)N3)ccc12` [Glp-Asn-ProAMC, Glp-Asn-Pro-7amido-4-methyl coumarin] ([pGlu]-Asn-Pro-{AMC}) had a solubility of 1000 µg/mL (≈ 2010 µM). The compound also had a pKi in data set [2] of 4.32±0.24. The “number of WDS compared with vehicle” value in data set [3] is “Neither TRH nor Glp-Asn-ProAMC alone produced a significantly greater number of WDS than vehicle”. Besides, the inhibitory constant (Ki) in data set [4] (calculated from percent inhibition measured in duplicate at 5 μM substrate) was 0.41 µM; in data set [4] (non-linear regression, five TRHAMC concentrations and at least three peptide concentrations, mean±S.D. (n=3)), 0.97 ± 0.08 µM. Also, the “mode of inhibition of TRH-DE” value in data set [4] (continuous assay, Lineweaver-Burk plot) is “simple competitive inhibitors”. The compound further returned an inhibition at 1 µM in data set [4] (peptide 1 μM, 5 μM TRHAMC substrate) of 50%. Also, the “reversibility and time dependence of inhibition” value in data set [4] (preincubation with TRH-DE up to 75 min at 37° C., Glp-Gln-ProNH2 400, Glp-Asn-ProNH2 160, Glp-Asn-ProAMC 1 μM) was “fully reversible and not time-dependent”.
As to `NC(=O)[C@@H]1CCCN1C(=O)[C@H](CCC(=O)O)NC(=O)[C@@H]1CCC(=O)N1` [Glp-Glu-ProNH2] ([pGlu]-Glu-Pro-NH2), the “hydrolysis by TRH-DE (release of Glp)” value in data set [5] (1 mM peptide incubated with TRH-DE 18 h at 37° C., HPLC) was “No detectable Glp”. In addition, the “substrate for TRH-DE” value in data set [6] is “is not”. Moreover, the inhibition constant (Ki) in data set [4] (estimated from <20% inhibition at 1 mM peptide with the competitive inhibition relationship) was over 1000 µM. Further, the inhibition at 1000 µM in data set [4] (peptide 1 mM, 5 μM TRHAMC substrate) was 17%.
Take `NC(=O)[C@@H]1CCCN1C(=O)[C@H](Cc1ccccc1)NC(=O)[C@@H]1CCC(=O)N1` [Glp-Phe-ProNH2] ([pGlu]-Phe-Pro-NH2): in data set [5], the Rate of hydrolysis was 1.56 ± 0.13 (5) U mg^−1. Besides, the “substrate for TRH-DE” value in data set [6] is listed as “is also a substrate for TRH-DE”.
Regarding Glp-His-ProOH, the Vmax in data set [5] (estimated from HPLC rates of hydrolysis using Vmax=vo{(Km+[S])/[S]}) is listed as 4.43 ± 0.24 (3) U mg^−1. Further, in data set [5], the Rate of hydrolysis is listed as 3.38 ± 0.18 (3) U mg^−1. For the same compound, the Km in data set [7] was 311 µM.

As a reminder, the solubility is the dissolved amount per volume that the medium holds. A high value points to much dissolved substance. Broadly, the pKi is the Ki on a negative log10 scale, so that one unit is a factor of ten. A higher pKi goes with a small Ki. As usually defined, the Ki is the equilibrium dissociation constant of an inhibitor or competing ligand from its target. As usually defined, the inhibition is the drop in the measured response relative to a control, in per cent. For orientation: Km means the concentration of substrate that gives half-maximal velocity.

(Values after US7378397B2 (The Provost, Fellows and Scholars of the College of the …, priority 2000, dated 2008).)
